# Calls of active or inactive are those of the source. The calls are words filed in the database; no cut-off is given here.
# Tests used:
# PC-3 [1] = assay: Cytotoxic activity in human PC3 cells assessed as reduction in cell viability incubated for 3 days by MTT assay; format: functional, cell-based; conditions: PC-3, 72 h
# MDA-MB-231 [2] = assay: Cytotoxic activity in human MDA-MB-231 cells assessed as reduction in cell viability incubated for 3 days by MTT assay; format: functional, cell-based; conditions: MDA-MB-231, 72 h
# HT-1080 [3] = assay: Cytotoxic activity in human HT1080 cells assessed as reduction in cell viability incubated for 3 days by MTT assay; format: functional, cell-based; conditions: HT-1080, 72 h
# HT-1080 [4] = assay: Induction of cell cycle arrest in human HT1080 cells assessed as accumulation at G2/M phase at 20 uM incubated for 48 hrs by propidium iodide staining based flow cytometry; format: functional
# PC-3 [5] = assay: Increase in p21(WAF1) protein expression in human PC3 cells at 50 uM incubated for 24 hrs by Western blot analysis; format: functional, cell-based
# [6] = target: T1, Mitogen-activated protein kinase; ERK1/ERK2 (Homo sapiens) (UniProt P27361+P28482); assay: Induction of ERK1/2 Thr202/Tyr204 phosphorylation in human PC3 cells at 50 uM incubated for 24 hrs by Western blot analysis; format: cell-based
# T1 sequence (P27361 whole entry, looked up, the tested form may be a part): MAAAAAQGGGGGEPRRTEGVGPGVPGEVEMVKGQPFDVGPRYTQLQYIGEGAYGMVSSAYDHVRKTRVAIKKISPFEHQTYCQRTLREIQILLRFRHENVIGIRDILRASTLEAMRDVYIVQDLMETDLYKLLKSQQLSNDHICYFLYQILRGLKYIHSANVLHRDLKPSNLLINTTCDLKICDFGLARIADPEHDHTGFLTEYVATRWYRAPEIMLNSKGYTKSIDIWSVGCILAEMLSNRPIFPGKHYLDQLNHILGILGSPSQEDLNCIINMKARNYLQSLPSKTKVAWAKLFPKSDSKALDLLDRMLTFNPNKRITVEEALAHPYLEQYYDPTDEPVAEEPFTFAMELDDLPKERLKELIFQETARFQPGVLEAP
# T1 sequence (P28482 whole entry, looked up, the tested form may be a part): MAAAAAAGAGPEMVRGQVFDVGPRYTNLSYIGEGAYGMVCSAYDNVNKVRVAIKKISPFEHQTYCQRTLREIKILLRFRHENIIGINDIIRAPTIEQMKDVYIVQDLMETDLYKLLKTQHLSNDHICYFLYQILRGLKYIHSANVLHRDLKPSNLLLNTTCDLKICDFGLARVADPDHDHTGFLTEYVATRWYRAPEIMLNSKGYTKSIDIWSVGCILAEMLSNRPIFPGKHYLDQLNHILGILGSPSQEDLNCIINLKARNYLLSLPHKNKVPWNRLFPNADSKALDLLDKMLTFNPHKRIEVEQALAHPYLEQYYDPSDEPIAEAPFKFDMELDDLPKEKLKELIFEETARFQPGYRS
# HT-1080 [7] = assay: Induction of apoptosis in human HT1080 cells assessed as induction of DNA fragmentation at 50 uM incubated for 48 hrs by flow cytometry; format: functional, cell-based
# MDA-MB-231 [8] = assay: Increase in p21(WAF1) protein expression in human MDA-MB-231 cells at 50 uM incubated for 24 hrs by Western blot analysis; format: functional, cell-based
# HT-1080 [9] = assay: Induction of apoptosis in human HT1080 cells assessed as induction of caspase-3 cleavage at 50 uM incubated for 24 hrs by Western blot analysis; format: functional, cell-based
# HT-1080 [10] = assay: Increase in p21(WAF1) protein expression in human HT1080 cells at 50 uM incubated for 24 hrs by Western blot analysis; format: functional, cell-based
# HT-1080 [11] = assay: Induction of cell cycle arrest in human HT1080 cells assessed as accumulation at G0/G1 phase at 20 uM incubated for 48 hrs by propidium iodide staining based flow cytometry; format: functional
# [12] = target: T1, Mitogen-activated protein kinase; ERK1/ERK2 (Homo sapiens); assay: Inhibition of ERK1/2 Thr202/Tyr204 phosphorylation in human MDA-MB-231 cells at 50 uM incubated for 24 hrs by Western blot analysis; format: cell-based
# HT-1080 [13] = assay: Induction of cell cycle arrest in human HT1080 cells assessed as accumulation at G0/G1 phase at 50 uM incubated for 48 hrs by propidium iodide staining based flow cytometry; format: functional
# HT-1080 [14] = assay: Induction of cell cycle arrest in human HT1080 cells assessed as accumulation at G2/M phase at 50 uM incubated for 48 hrs by propidium iodide staining based flow cytometry; format: functional
Activity [6],inhibition [12],SMILES,IC50 (PC-3 [1]) [µM],IC50 (MDA-MB-231 [2]) [µM],IC50 (HT-1080 [3]) [µM],Activity (HT-1080 [4]),Activity (PC-3 [5]),Activity (HT-1080 [7]),Activity (MDA-MB-231 [8]),Activity (HT-1080 [9]),Activity (HT-1080 [10]),Activity (HT-1080 [11]),Activity (HT-1080 [13]),Activity (HT-1080 [14])
–,–,O=C1S/C(=C/c2ccccc2)C(=O)N1Cc1nc2ccccc2c(=O)n1-c1cccc(Br)c1,37,23.4,24.6,–,–,–,–,–,–,–,–,–
Active,Active,O=C1NC(=O)/C(=C\c2ccc(OCc3nc4ccccc4c(=O)n3-c3ccc(Cl)cc3)cc2)S1,8.7,4.5,3.9,Active,Active,Active,Active,Active,inactive,Active,–,–
–,–,COc1cc(/C=C2/SC(=O)NC2=O)ccc1OCc1nc2ccccc2c(=O)n1-c1ccc(Br)cc1,51.1,51.3,18.9,–,–,Active,–,Active,–,–,Active,Active
–,–,COc1cccc(-n2c(COc3ccc(/C=C4/SC(=O)NC4=O)cc3OC)nc3ccccc3c2=O)c1,64.1,87.2,47.9,–,–,Active,–,–,–,–,Active,Active
–,–,COc1cc(/C=C2/SC(=O)NC2=O)ccc1OCc1nc2ccccc2c(=O)n1-c1cccc(Cl)c1,62.1,72.5,67.6,–,–,–,–,–,–,–,–,–
–,–,Cc1cccc(-n2c(COc3ccc(/C=C4/SC(=O)NC4=O)cc3)nc3ccccc3c2=O)c1,> 100,> 100,54,–,–,–,–,–,–,–,–,–
Active,Active,O=C1NC(=O)/C(=C\c2ccc(OCc3nc4ccccc4c(=O)n3-c3ccc(C(F)(F)F)cc3)cc2)S1,19.1,13,9,Active,Active,Active,Active,Active,inactive,Active,–,–
–,–,COc1cc(/C=C2/SC(=O)NC2=O)ccc1OCc1nc2ccccc2c(=O)n1-c1ccc(C(F)(F)F)cc1,50.1,41,38.8,–,–,Active,–,Active,–,–,Active,Active
–,–,CCc1ccc(CCOc2ccc(CC3SC(=O)NC3=O)cc2)nc1 (stereo not given) [PIOGLITAZONE],> 100,> 100,> 100,–,Active,inactive,Active,–,inactive,–,–,–
–,–,COc1cc(/C=C2/SC(=O)NC2=O)ccc1OCc1nc2ccccc2c(=O)n1-c1ccccc1,64.2,84.2,64.7,–,–,Active,–,–,–,–,Active,Active
–,–,COc1cc(/C=C2/SC(=O)NC2=O)ccc1OCc1nc2ccccc2c(=O)n1-c1cccc(Br)c1,66.8,62.1,41.9,–,–,Active,–,–,–,–,Active,Active
–,–,Cc1ccc(/C=C2/SC(=O)N(Cc3nc4ccccc4c(=O)n3-c3ccccc3)C2=O)cc1,82.4,39.7,68.4,–,–,–,–,–,–,–,–,–
–,–,O=C1S/C(=C/c2ccc(Cl)cc2Cl)C(=O)N1Cc1nc2ccccc2c(=O)n1-c1ccccc1,58.1,6.4,12.2,Active,–,inactive,–,–,–,Active,–,–
–,–,COc1cc(-n2c(CN3C(=O)S/C(=C/c4ccc(N(C)C)cc4)C3=O)nc3ccccc3c2=O)cc(OC)c1OC,> 100,> 100,98.1,–,–,inactive,–,Active,–,–,Active,Active
–,–,O=C1NC(=O)/C(=C\c2ccc(OCc3nc4ccccc4c(=O)n3-c3ccc(F)cc3)cc2)S1,52.1,46.2,45.3,–,–,Active,–,–,–,–,Active,Active
Active,Active,CN(C)c1ccc(/C=C2/SC(=O)N(Cc3nc4ccccc4c(=O)n3-c3ccccc3)C2=O)cc1,19.4,5.9,9,Active,–,Active,–,Active,–,Active,–,–
–,–,O=C1NC(=O)/C(=C\c2ccc(OCc3nc4ccccc4c(=O)n3-c3ccc(Br)cc3)cc2)S1,60.7,45.4,46.1,–,–,Active,–,–,–,–,Active,Active
–,–,COc1cccc2c1C(=O)c1c(O)c3c(c(O)c1C2=O)C[C@@](O)(C(=O)CO)C[C@@H]3O[C@H]1C[C@H](N)[C@H](O)[C@H](C)O1 [DOXORUBICIN],0.3,0.36,0.017,–,–,–,–,–,–,–,–,–
–,–,O=C1NC(=O)/C(=C\c2ccc(OCc3nc4ccccc4c(=O)n3-c3cccc(Cl)c3)cc2)S1,70.2,58.5,44.8,–,–,Active,–,–,–,–,Active,Active
–,–,Cc1ccc(-n2c(COc3ccc(/C=C4/SC(=O)NC4=O)cc3)nc3ccccc3c2=O)cc1,82.5,72.2,45.3,–,–,Active,–,–,–,–,Active,Active
–,–,COc1cccc(-n2c(COc3ccc(/C=C4/SC(=O)NC4=O)cc3)nc3ccccc3c2=O)c1,66.9,59.6,45.6,–,–,Active,–,–,–,–,Active,Active
–,–,COc1ccc(/C=C2/SC(=O)N(Cc3nc4ccccc4c(=O)n3-c3ccccc3)C2=O)cc1,79.6,32.5,47.8,–,–,Active,–,–,–,–,Active,Active
–,–,COc1ccc(-n2c(CN3C(=O)S/C(=C/c4ccc(N(C)C)cc4)C3=O)nc3ccccc3c2=O)cc1OC,> 100,> 100,86.5,–,–,Active,–,Active,–,–,Active,Active
–,–,O=C1NC(=O)/C(=C\c2ccc(OCc3nc4ccccc4c(=O)n3-c3ccccc3)cc2)S1,71,50.7,34.9,–,–,Active,–,–,–,–,Active,Active
–,–,O=C1NC(=O)/C(=C\c2ccc(OCc3nc4ccccc4c(=O)n3-c3cccc(Br)c3)cc2)S1,52.9,49.8,28.4,–,–,Active,–,–,–,–,Active,Active

# From ChEMBL document CHEMBL4270491, “Novel 2,4- thiazolidinediones: Synthesis, in vitro cytotoxic activity, and mechanistic investigation” (Eur J Med Chem, 2017)
